The results in this text go back to patent US20250144066A1, “Prevention and Treatment of Parasitic Infections” (priority 2017, published 2025).

The structures appear in SMILES notation. Values after ≈ are worked out from the molar mass of the structure shown. “Also recorded” adds a separate entry of the source. Like-named read-outs stand apart in the source and are kept apart here. Bounds are passed on as bounds.

One series concerns Adenovirus5 Adenoid75. The experiment in a line: Adenovirus 5 CPE inhibition, A549 (ADV-0172). The series is classed as cell-based. As to conditions: A549.
The next series deals with A549. Description: Toxicity in A549 cells (ADV-0172). The series is classed as cell-based.
Series [1] has as its system human norovirus (NV, GT1). Description: Human norovirus replicon, RNA Hybridization, HG23, primary (16-21). The format is cell-based. As to conditions: RNA Hybridization (Replicon), NV GT1, HG23. From the text: (§1) Secondary testing was done with human norovirus.
In general terms: In antiviral work, replicon cells carry a viral genome segment that copies itself.

In series [2] the test system is HG23. Description: RNA Hybridization toxicity in HG23 cells (16-21). The series is classed as cell-based.
Excerpt: as §1

The subject of a further series is mouse norovirus (MNV-1). The experiment in a line: Mouse norovirus CPE inhibition (NR), RAW264.7 (17-09). The format is cell-based.
Series [3] concerns human norovirus (NV, GT1). The experiment in a line: Human norovirus replicon, qPCR, HG23, secondary (17-14). The format is cell-based.
Excerpt: as §1

The subject of series [4] is HG23. The experiment in a line: NR toxicity in HG23 cells (17-14). The format is cell-based. As to conditions: NR (Tox).
Excerpt: as §1

For series [5], the system named is Zika Virus. The experiment in a line: Zika virus cytopathic effect (CPE) inhibition, Vero 76, primary screen (Zika-089). The following applies: Zika virus, MR766, Vero 76, primary. The series is classed as cell-based. For orientation: Cytopathic effects are the visible damage that an infection or toxin causes in cultured cells.
Series [6] has as its system Zika Virus. Description: Zika virus CPE inhibition (Neutral Red), Vero 76, secondary (Zika-094). The format is cell-based. As to conditions: Neutral Red (Cytopathic effect), MR766.
The test system of series [7] is Zika Virus. The experiment in a line: Zika virus yield reduction (VYR), Vero 76, secondary (Zika-094). The following applies: Visual (Virus yield reduction), MR766. The series is classed as cell-based.
Series [8] deals with Zika Virus. Description: Zika virus CPE inhibition (Neutral Red), Huh7, secondary (Zika-094). The series is classed as cell-based. The following applies: Huh-7, Neutral Red (Cytopathic effect), MR766, Huh7, secondary, read-out: EC50.
Series [9] relates to Zika Virus. The experiment in a line: Zika virus yield reduction (VYR), Huh7, secondary (Zika-094). The format is cell-based. The following applies: Huh-7, Visual (Virus yield reduction), MR766.
Series [10] can be described thus: Toxicity in Vero 76 cells, primary screen (Zika-089). As to conditions: monkey, Vero 76 cells.
Series [11] can be described thus: Neutral Red toxicity in Huh7 cells, secondary (Zika-094). As to conditions: human.
Series [12] in a line: Neutral Red toxicity in Vero 76 cells, secondary (Zika-094). As to conditions: monkey, Vero 76 cells.
Series [13] in a line: Cell Titer-Glo toxicity in C-33A cells (HPV16-15). The following applies: human, C-33A cells.
The subject of series [14] is influenza A/California/04/2009 (H1N1pdm). Description: Mycophenolate mofetil in influenza-infected mice on standard or low nucleotide diet (Example 19). The format is in vivo, C57BL/6 mice. As to conditions: for Mean Day of Death (MDD) vs placebo: standard diet.
The subject of series [15] is Zika Virus. Description: Zika prevention, CPE inhibition (Neutral Red), Huh7, 4 h pre-incubation (Zika-138). The format is cell-based. The following applies: Neutral Red (Cytopathic effect), pre-incubated 4 hours prior to infection.
Series [16] deals with Zika Virus. The experiment in a line: Zika prevention, virus yield reduction (VYR), Huh7, 4 h pre-incubation (Zika-138). The format is cell-based. The following applies: Visual (Virus yield reduction); Huh7; pre-incubated 4 hours prior to infection. How it is done: (§2) An experiment was carried out as specified in Example 8. In a Zika Prevention Trial, MPA was pre-incubated with human cells 4 hours or 24 hours before Zika virus infection.

In series [17] the test system is Zika Virus. The experiment in a line: Zika prevention, CPE inhibition (Neutral Red), Huh7, 24 h pre-incubation (Zika-138). The format is cell-based. As to conditions: Neutral Red (Cytopathic effect), pre-incubated 24 hours prior to infection.
The test system of series [18] is Zika Virus. The experiment in a line: Zika prevention, virus yield reduction (VYR), Huh7, 24 h pre-incubation (Zika-138). The format is cell-based. As to conditions: Visual (Virus yield reduction); Huh7; pre-incubated 24 hours prior to infection. How it is done:
as §2

The subject of series [19] is Zika Virus. Description: Zika prevention, CPE inhibition (Neutral Red), Vero 76, 4 h pre-incubation (Zika-138). The format is cell-based. As to conditions: Neutral Red (Cytopathic effect), pre-incubated 4 hours prior to infection.
Series [20] relates to Zika Virus. Description: Zika prevention, virus yield reduction (VYR), Vero 76, 4 h pre-incubation (Zika-138). The format is cell-based. The following applies: Visual (Virus yield reduction), pre-incubated 4 hours prior to infection.
In series [21] the test system is Zika Virus. The experiment in a line: Zika prevention, CPE inhibition (Neutral Red), Vero 76, 24 h pre-incubation (Zika-138). The series is classed as cell-based. The following applies: Neutral Red (Cytopathic effect), pre-incubated 24 hours prior to infection.
The test system of series [22] is Zika Virus. The experiment in a line: Zika prevention, virus yield reduction (VYR), Vero 76, 24 h pre-incubation (Zika-138). As to conditions: Visual (Virus yield reduction), pre-incubated 24 hours prior to infection. The series is classed as cell-based.
Series [23] relates to Vero 76.
In series [24] the test system is Vero 76. This is another data set of the same source.
The subject of series [25] is influenza A/California/04/2009 (H1N1pdm). The experiment in a line: Oseltamivir with control or low guanosine diet in influenza-infected mice (Example 15). The format is in vivo, C57BL/6 mice. The following applies: oseltamivir IP, BID for five days from four hours pre-infection.
Series [26] has as its system Influenza A virus H1N1 California/07/2009. Description: microbe, parasite or virus in culture. The format is cell-based.
Series [27] deals with Respiratory syncytial virus A2. Description: microbe, parasite or virus in culture. The series is classed as cell-based.
The next series has as its system Lassa fever virus Josiah. The experiment in a line: organism not typed. The series is classed as cell-based. As to conditions: Vero.
Series [28] has as its system Rift Valley fever virus MP-12. The experiment in a line: microbe, parasite or virus in culture. The series is classed as cell-based.
Series [29] in a line: in vitro. The following applies: dog.
Series [30] can be described thus: in vitro. As to conditions: African green monkey.
Series [31] is described as follows: in vitro. The following applies: African green monkey. This is another data set of the same source.

Broadly, the EC50 is the midpoint of the concentration-response curve. In the case of `Nc1ccn([C@H]2CC[C@@H](CO)O2)c(=O)n1` [2,3-Dideoxycytidine], the EC50 with Adenovirus5 Adenoid75 (Neutral Red (Cytopathic effect)) and with Adenovirus5 Adenoid75 (Visual (Cytopathic effect)) was 3.2 mg/L (≈ 15.2 µM) in each case. Moreover, the CC50 in the series with A549 (Neutral Red (Toxicity)) and in the series on A549 (Visual (Toxicity)) was more than 100 mg/L throughout.
The term EC90 denotes the concentration at which the effect reaches the 90% level. In the case of `C[C@@]1(O)[C@H](O)[C@@H](CO)O[C@H]1n1ccc(N)nc1=O` [2′C-methyl cytidine], the figures for the EC50 (in [1] (read-out: EC50); in the series with mouse norovirus (MNV-1); in series [3]) were 6.6 µM, 1 µM and 6 µM, respectively. For the same molecule, the EC90 in series [1] (read-out: EC90) amounted to 17 µM; in the series with mouse norovirus (MNV-1), 3.2 µM; in series [3] it was 18 µM. For the same molecule, the CC50 is more than 300 µM in the series on HG23 [2], more than 300 µM in the series on HG23 [4] and 51 µM with RAW264.7.
On to `O=c1cnn([C@@H]2O[C@H](CO)[C@@H](O)[C@H]2O)c(=O)[nH]1` [6-Azauridine], for which the EC50 in the series with Zika Virus [5] (Vero 76, Neutral Red (Cytopathic effect)) was determined as 0.35 mg/L (≈ 1.43 µM); with Zika Virus [5] (Vero 76, Visual (Cytopathic effect)), 0.32 mg/L (≈ 1.31 µM); with Zika Virus [6], 0.37 mg/L (≈ 1.51 µM); in the series on Zika Virus [8], 1.2 mg/L (≈ 4.89 µM). For the same molecule, the EC90 with Zika Virus [7] was 1.3 mg/L (≈ 5.3 µM); in the series on Zika Virus [9], 27.4 mg/L (≈ 112 µM). In addition, the CC50 in series [10] (CC50, Neutral Red (Toxicity)) was 83.3 mg/L (≈ 340 µM); in series [10] (CC50, Visual (Toxicity)), more than 100 mg/L; in series [11], more than 100 mg/L; in series [12], 9.9 mg/L (≈ 40.4 µM).
In series [13], `Nc1nc2c(ncn2CCOCP(=O)(O)O)c(=O)[nH]1` [9-[2-(phosphonomethoxy)ethyl]guanine] showed a CC50 of 141 µM.
As to `COc1c(C)c2c(c(O)c1C/C=C(\C)CCC(=O)OCCN1CCOCC1)C(=O)OC2` [MMF, 2-morpholinoethyl ester of mycophenolic acid], the “protection (survival) vs placebo” value in series [14] (low nucleotide diet, MMF 4 mg/kg/day bid for 6 days beginning 4 h pre-infection) is “significant (P<0.05) protection; also recorded: improved survival outcome”. Further, the “Mean Day of Death (MDD) vs placebo” value in series [14] (MMF 4 mg/kg/day PO bid for 6 days) and in series [14] (MMF 40 mg/kg/day PO bid for 6 days) was “significantly (P<0.05) increased” in each case.
`C#C[C@@]1(O)[C@H](O)[C@@H](CO)O[C@H]1n1ccc2c(N)ncnc21` [NITD008]: the EC50 was determined as 1.1 mg/L (≈ 3.79 µM) in the series on Zika Virus [15], 0.77 mg/L (≈ 2.65 µM) in the series on Zika Virus [17], 8.3 mg/L (≈ 28.6 µM) in the series on Zika Virus [19] and 5.1 mg/L (≈ 17.6 µM) in the series on Zika Virus [21]. Moreover, the EC90 in the series on Zika Virus [16] turned out to be 0.61 mg/L (≈ 2.1 µM); in the series with Zika Virus [18], 1.0 mg/L (≈ 3.44 µM); with Zika Virus [20], 7.81 mg/L (≈ 26.9 µM); with Zika Virus [22], 31.62 mg/L (≈ 109 µM). For the same molecule, the CC50 in the series on Vero 76 [23] and with Vero 76 [24] was more than 100 mg/L each time.
`CCOC(=O)C1=C[C@@H](OC(CC)CC)[C@H](NC(C)=O)[C@@H](N)C1` [Oseltamivir, oseltamivir]: the “survival at 21 days post-infection” value in [25] (Group A, control diet (Harlan mouse lab diet)) is 40%; in series [25] (Group B, low guanosine diet (Purina Mills #5755)) it was 100%.
In the case of `NC(=O)c1ncn([C@@H]2O[C@H](CO)[C@@H](O)[C@H]2O)n1` [Ribavirin], the EC50 was 4.1 µM in series [26]; 3.7 µM in series [26] (Influenza A virus, H1N1, MDCK); 12 mg/L (≈ 49.1 µM) in [27]; 7.6 mg/L (≈ 31.1 µM) in series [27] (human respiratory syncytial virus, MA104); 32 µM in the series with Lassa fever virus Josiah; 12 mg/L (≈ 49.1 µM) in series [28]. In addition, the midpoint of the response in series [28] (Rift Valley fever virus, Vero 76), the EC50, lay at 11 mg/L (≈ 45 µM). The CC50 was more than 320 µM in the series “in vitro [29]”, more than 100 µM in “in vitro [30]” and more than 1000 mg/L in the series “in vitro [31]”.
